The test system of assay [1] is CD4+ Th cells. Put plainly: Generation of TH1/TH2 cells in presence or absence of MSCs, IFN-γ and IL-4 by ELISA. The settings on record: MSCs cultured with TH1 cells in presence of PGE2 inhibitor. Type of assay: cell-based, human. As to the method: Peripheral blood mononuclear cells (PBMCs) were plated at 2×10^6 cells/ml for 45 min. at 37°C. in order to remove monocytes. Non-adherent fraction was incubated in the presence of plate-bound anti-CD3 ([…]) and anti-CD28 (1 μg/ml) antibodies under TH1 (IL-2 (4 ng/ml)+IL-12 (5 ng/ml)+anti-IL-4 (1 μg/ml)) or TH2 (IL-2 (4 ng/ml)+Il-4 (4 ng/ml)+anti-IFN-γ (1 μg/ml)) conditions for 3 days in the presence or absence of MSCs. The cells were washed and then re-stimulated with PHA (2.5 μg/ml) for another 24 or 48 hours, following which levels of IFN-γ and IL-4 were measured in culture supernatants by ELISA (R&D Systems, Minneapolis, Minn.).
(In general: ELISA stands for enzyme-linked immunosorbent assay.)

Assay [2] concerns MSCs. As to the kind of experiment: Secreted factors (PGE2, IL-6, VEGF, pro-MMP-1) in culture supernatant of MSCs. Type of assay: cell-based. The settings on record: Homo sapiens, 24 hour culture, read-out: inhibition of PGE2 secretion by hMSCs. As for the experimental part: Using previously characterized human MSCs, the levels of Interleukin-6 (IL-6), VEGF, lipid mediator prostaglandin E2 (PGE2), and matrix metalloproteinase 1 (pro-MMP-1) were analyzed in culture supernatant of MSCs cultured for 24 hours in the presence or absence of PBMCs (MSC to PBMC ratio 1:10).

Assay [3] has as its system DC1 cells. As to the kind of experiment: MSC co-culture with LPS-activated DC1 cells, TNF-α secretion. In kind it is cell-based, human. As to conditions: MSCs cultured with activated DC1 in presence of PGE2 inhibitor. The text has this: Peripheral blood mononuclear cells (PBMCs) were obtained from Poietics Technologies, Div of Cambrex Biosciences (Walkersville, Md.). Precursors of dendritic cells (DCs) of monocytic lineage (CD1c^+) were positively selected from PBMCs using a 2-step magnetic separation method according to Dzionek, et al., J. Immunol., Vol. 165, pg. 6037 (2000). Briefly, CD1c expressing B cells were magnetically depleted of CD19^+ cells using magnetic beads, followed by labeling the B-cell depleted fraction with biotin-labeled CD1c (BDCA1^+) and anti-biotin antibodies and separating them from the unlabeled cell fraction utilizing magnetic columns according to the manufacturer's instructions (Miltenyi Biotech, Auburn, Calif.). Precursors of DCs of plasmacytoid lineage were isolated from PBMCs by immuno-magnetic sorting of positively labeled antibody coated cells (BDCA2^+) (Miltenyi Biotech, Auburn, Calif.).
In most experiments, human MSCs and DCs were cultured in equal numbers for various time periods and cell culture supernatant collected and stored at −80° C. until further evaluation. […] The non-adherent cell fraction (purified T cells) was then collected from the cultures, washed twice and re-stimulated with PHA for another 24 hours, following which cell culture supernatants were harvested and analyzed for secreted IFN-γ and IL-4 by ELISA. […]

Regarding `CS(=O)(=O)Nc1ccc([N+](=O)[O-])cc1OC1CCCCC1` [NS-398], the “IFN-γ secretion from TH1 cells” value in assay [1] is given as “increased”. Also, in assay [2] (NS-398 5 μM), the inhibition at 5 µM fell in the range of 60 to 90%. In addition, the “TNF-α secretion by DC1s” value in assay [3] is “increased TNF-α secretion”.
In the case of `COc1ccc2c(c1)c(CC(=O)O)c(C)n2C(=O)c1ccc(Cl)cc1` [indomethacin], the “IFN-γ secretion from TH1 cells” value in assay [1] is given as “increased”. Further, in assay [2] (indomethacin 4 μM), the inhibition at 4 µM was in the range of 60 to 90%. In assay [3], the “TNF-α secretion by DC1s” value is “increased TNF-α secretion”.

Broadly, the inhibition is how much of the control response was suppressed.

(Values after patent US10716814B2, “Mesenchymal stem cells and uses therefor” (Mesoblast International Sárl, priority 2004, dated 2020).)
